Source: the NIST ThermoML archive (doi:10.1021/je700260f)

Details: Liquid, Vibrating tube method

FC(C(F)(F)F)C(F)(F)F [1,1,1,2,3,3,3-heptafluoropropane]
Details | mass density [kg/m3]
303.15 K, 31383 kPa | 1520.3
303.15 K, 31415 kPa | 1520.5
303.15 K, 31442 kPa | 1520.5
303.15 K, 31478 kPa | 1520.6
303.15 K, 31506 kPa | 1520.8
303.15 K, 31538 kPa | 1520.8
303.15 K, 31570 kPa | 1521.1
303.15 K, 31607 kPa | 1521.1
303.15 K, 31634 kPa | 1521.1
303.15 K, 31671 kPa | 1521.3
303.15 K, 31699 kPa | 1521.4
303.15 K, 31745 kPa | 1521.4
303.15 K, 31773 kPa | 1521.7
303.15 K, 31806 kPa | 1521.7
303.15 K, 31839 kPa | 1521.9
303.15 K, 31871 kPa | 1521.8
303.15 K, 31914 kPa | 1522
303.15 K, 33938 kPa | 1528.3
303.15 K, 33968 kPa | 1528.3
303.15 K, 34013 kPa | 1528.4
303.15 K, 34044 kPa | 1528.6
303.15 K, 34091 kPa | 1528.8
303.16 K, 1756 kPa | 1377.1
303.16 K, 1773 kPa | 1377.2
303.16 K, 1841 kPa | 1377.8
303.16 K, 2155 kPa | 1380.4
303.16 K, 2175 kPa | 1380.5
303.16 K, 2196 kPa | 1380.8
303.16 K, 2220 kPa | 1380.9
303.16 K, 2238 kPa | 1381
303.16 K, 2262 kPa | 1381.2
303.16 K, 2781 kPa | 1385.3
303.16 K, 2809 kPa | 1385.5
303.16 K, 2833 kPa | 1385.7
303.16 K, 2855 kPa | 1385.8
303.16 K, 2874 kPa | 1386.1
303.16 K, 2903 kPa | 1386.2
303.16 K, 2923 kPa | 1386.5
303.16 K, 2945 kPa | 1386.6
303.16 K, 2970 kPa | 1386.7
303.16 K, 3045 kPa | 1387.3
303.16 K, 3161 kPa | 1388.3
303.16 K, 3180 kPa | 1388.4
303.16 K, 3245 kPa | 1388.9
303.16 K, 3334 kPa | 1389.4
303.16 K, 4314 kPa | 1396.7
303.16 K, 4345 kPa | 1396.9
303.16 K, 4366 kPa | 1397.2
303.16 K, 4395 kPa | 1397.2
303.16 K, 4845 kPa | 1400.4
303.16 K, 9092 kPa | 1427.1
303.16 K, 9131 kPa | 1427.4
303.16 K, 9158 kPa | 1427.5
303.16 K, 9192 kPa | 1427.6
303.16 K, 9223 kPa | 1427.9
303.16 K, 20848 kPa | 1482.9
303.16 K, 20912 kPa | 1483.1
303.16 K, 20941 kPa | 1483.3
303.16 K, 20974 kPa | 1483.4
303.16 K, 21003 kPa | 1483.6
313.14 K, 2256 kPa | 1337.4
313.14 K, 2281 kPa | 1337.6
313.14 K, 2307 kPa | 1337.9
313.14 K, 2329 kPa | 1337.9
313.14 K, 2362 kPa | 1338.4
313.14 K, 2381 kPa | 1338.6
313.14 K, 2406 kPa | 1338.8
313.14 K, 2431 kPa | 1339.2
313.14 K, 2463 kPa | 1339.5
313.14 K, 2485 kPa | 1339.7
313.14 K, 2518 kPa | 1339.8
313.14 K, 2546 kPa | 1340.2
313.14 K, 2571 kPa | 1340.5
313.14 K, 2596 kPa | 1340.7
313.14 K, 2621 kPa | 1340.9
313.14 K, 2650 kPa | 1341.2
313.14 K, 2671 kPa | 1341.5
313.14 K, 3117 kPa | 1345.6
313.14 K, 3144 kPa | 1345.9
313.14 K, 3170 kPa | 1346
313.14 K, 3193 kPa | 1346.3
313.14 K, 3223 kPa | 1346.7
313.14 K, 3247 kPa | 1346.8
313.14 K, 3275 kPa | 1347
313.14 K, 4237 kPa | 1355.5
313.14 K, 4266 kPa | 1355.8
313.14 K, 4299 kPa | 1356.1
313.14 K, 4328 kPa | 1356.3
313.14 K, 4487 kPa | 1357.8
313.14 K, 4509 kPa | 1358
313.14 K, 4539 kPa | 1358.2
313.14 K, 4561 kPa | 1358.3
313.14 K, 4590 kPa | 1358.4
313.14 K, 4614 kPa | 1358.7
313.14 K, 4639 kPa | 1359
313.14 K, 4660 kPa | 1359.2
313.14 K, 4688 kPa | 1359.4
313.14 K, 4710 kPa | 1359.5
313.14 K, 5002 kPa | 1362.2
313.14 K, 6187 kPa | 1371.4
313.14 K, 6210 kPa | 1371.5
313.14 K, 6240 kPa | 1371.6
313.14 K, 6264 kPa | 1371.8
313.14 K, 6295 kPa | 1372.2
313.14 K, 6319 kPa | 1372.4
313.14 K, 6347 kPa | 1372.4
313.14 K, 6379 kPa | 1372.7
313.14 K, 8595 kPa | 1388.5
313.14 K, 12590 kPa | 1413.1
313.14 K, 13048 kPa | 1415.8
313.14 K, 13083 kPa | 1416
313.14 K, 14273 kPa | 1422.5
313.14 K, 14312 kPa | 1422.7
313.14 K, 14342 kPa | 1422.9
313.14 K, 18535 kPa | 1443.8
313.14 K, 18569 kPa | 1443.9
313.14 K, 18598 kPa | 1444.1
313.14 K, 18633 kPa | 1444.1
313.14 K, 18662 kPa | 1444.3
313.14 K, 25516 kPa | 1473.5
313.14 K, 25569 kPa | 1473.8
313.14 K, 25615 kPa | 1473.9
313.14 K, 25663 kPa | 1474
313.14 K, 25698 kPa | 1474.2
313.14 K, 25734 kPa | 1474.4
313.14 K, 25776 kPa | 1474.5
313.14 K, 25819 kPa | 1474.7
313.14 K, 25862 kPa | 1474.7
313.14 K, 25905 kPa | 1475
313.14 K, 25953 kPa | 1475.3
313.14 K, 25993 kPa | 1475.3
313.14 K, 26035 kPa | 1475.5
313.14 K, 26070 kPa | 1475.7
313.14 K, 26129 kPa | 1475.7
313.14 K, 26171 kPa | 1475.9
313.14 K, 26230 kPa | 1476.2
313.14 K, 26265 kPa | 1476.5
313.14 K, 26307 kPa | 1476.7
313.14 K, 26355 kPa | 1476.6
313.14 K, 26384 kPa | 1476.9
313.14 K, 26431 kPa | 1477
313.14 K, 26467 kPa | 1477.1
313.14 K, 26516 kPa | 1477.3
313.14 K, 26563 kPa | 1477.5
313.14 K, 26598 kPa | 1477.7
313.14 K, 26634 kPa | 1477.8
313.14 K, 26676 kPa | 1477.9
313.14 K, 26712 kPa | 1478
313.14 K, 26759 kPa | 1478.2
313.14 K, 26806 kPa | 1478.3
313.14 K, 26855 kPa | 1478.6
313.14 K, 26891 kPa | 1478.6
313.14 K, 26928 kPa | 1478.9
313.14 K, 26976 kPa | 1479
313.14 K, 27297 kPa | 1480.2
313.14 K, 27651 kPa | 1481.6
313.14 K, 27676 kPa | 1481.7
313.14 K, 27719 kPa | 1481.9
313.14 K, 27749 kPa | 1482
313.14 K, 27835 kPa | 1482.4
313.14 K, 27864 kPa | 1482.4
313.14 K, 28790 kPa | 1485.8
313.14 K, 28820 kPa | 1485.9
313.14 K, 28855 kPa | 1486.1
313.14 K, 28889 kPa | 1486.1
313.14 K, 28918 kPa | 1486.2
313.14 K, 28953 kPa | 1486.3
313.14 K, 28993 kPa | 1486.5
313.14 K, 29033 kPa | 1486.8
313.14 K, 29059 kPa | 1486.6
313.14 K, 29641 kPa | 1489
313.14 K, 29682 kPa | 1489.1
313.14 K, 29711 kPa | 1489.2
313.14 K, 29757 kPa | 1489.4
313.14 K, 29798 kPa | 1489.5
313.14 K, 29841 kPa | 1489.5
313.14 K, 29883 kPa | 1489.8
313.14 K, 29915 kPa | 1489.9
313.14 K, 29950 kPa | 1489.9
313.14 K, 29980 kPa | 1490.2
313.14 K, 30015 kPa | 1490.2
313.14 K, 30045 kPa | 1490.2
313.14 K, 30081 kPa | 1490.3
313.14 K, 30117 kPa | 1490.6
313.14 K, 30159 kPa | 1490.6
313.14 K, 30185 kPa | 1490.7
313.14 K, 30217 kPa | 1491
313.14 K, 30259 kPa | 1491.1
313.14 K, 30299 kPa | 1491.3
313.14 K, 30342 kPa | 1491.3
313.14 K, 30376 kPa | 1491.5
313.14 K, 30424 kPa | 1491.8
313.14 K, 30466 kPa | 1491.8
313.14 K, 30511 kPa | 1492
313.14 K, 30547 kPa | 1492
313.14 K, 30593 kPa | 1492.2
313.14 K, 30624 kPa | 1492.2
313.14 K, 30664 kPa | 1492.6
313.14 K, 30690 kPa | 1492.5
313.14 K, 30727 kPa | 1492.7
313.14 K, 30775 kPa | 1492.8
313.14 K, 30815 kPa | 1493
313.14 K, 30847 kPa | 1493.3
313.14 K, 30889 kPa | 1493.2
313.14 K, 30921 kPa | 1493.5
313.14 K, 30962 kPa | 1493.5
